Experimental data taken from patent US6905834B1, “Bioluminescent bioreporter integrated circuit detection methods” (UT-Battelle, LLC, priority 1997, dated 2005).

Key:
[1] = tested on: N. europaea Km^r hao-lux; test: Bioluminescence response of N. europaea hao-lux fusion to NH4+; assay type: cell-based, Nitrosomonas europaea
Method: The NH4^+ detection limits were determined to be 20 μM at 30 min of exposure and 10 μM at 60 min or 90 min of exposure (threefold increase over background bioluminescence).

[2] = tested on: S. cerevisiae HER; test: Sol-gel encapsulated yeast β-galactosidase bioreporter for estrogenic activity; assay type: cell-based, Saccharomyces cerevisiae; conditions: over a seven day period; comparable to non-encapsulated positive control
Method: Sol-gel encapsulation studies substituting another yeast strain, S. cerevisiae HER, a β-galactosidase bioreporter for estrogenic activity were conducted. Strain HER was successfully incorporated into the sol-gel matrix while retaining responsiveness to the estrogen inducer β-estradiol.

`N.N.O=S(=O)(O)O` [NH4^+, (NH4)2SO4] was tested, and the “NH4^+ detection limit (threefold increase over background bioluminescence)” value ([1]; 30 min of exposure) was 20 µM and the “NH4^+ detection limit (threefold increase over background bioluminescence)” value ([1]; 60 min or 90 min of exposure) was 10 µM.

`C[C@]12CC[C@@H]3c4ccc(O)cc4CC[C@H]3[C@@H]1CC[C@@H]2O` [β-estradiol] was tested, and the “estrogenic response of sol-gel encapsulated yeast cells (in words)” value [2] was “an estrogenic response was initiated”.
